# From ChEMBL document CHEMBL1154964, “Acidic elements in histamine H(3) receptor antagonists” (Bioorg Med Chem Lett, 2010)
# Molecular target: T1, Peroxisome proliferator-activated receptor alpha (Homo sapiens, UniProt Q07869)
# T1 sequence (Q07869 whole entry): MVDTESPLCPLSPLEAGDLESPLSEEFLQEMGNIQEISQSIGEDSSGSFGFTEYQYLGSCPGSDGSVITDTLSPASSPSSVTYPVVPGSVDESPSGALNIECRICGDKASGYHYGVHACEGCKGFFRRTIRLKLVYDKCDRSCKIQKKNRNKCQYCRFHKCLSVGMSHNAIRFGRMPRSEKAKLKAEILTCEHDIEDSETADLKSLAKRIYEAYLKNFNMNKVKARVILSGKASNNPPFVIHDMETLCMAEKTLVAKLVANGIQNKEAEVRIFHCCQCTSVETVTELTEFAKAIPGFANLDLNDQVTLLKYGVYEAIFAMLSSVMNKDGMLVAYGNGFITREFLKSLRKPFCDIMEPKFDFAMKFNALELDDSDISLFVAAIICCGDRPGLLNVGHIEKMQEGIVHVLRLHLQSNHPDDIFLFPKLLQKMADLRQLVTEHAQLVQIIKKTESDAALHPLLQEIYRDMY
# Test: Agonist activity at human recombinant PPARalpha LBD expressed in african green monkey COS7 cells coexpressing GAL4 by luciferase reporter gene transactivation assay
# Format: functional, cell-based, COS-7
row,EC50,SMILES
1,> 10000 nM,O=C1NC(=S)S/C1=C\c1ccc(OCCCN2CCCCC2)cc1

# Molecular target: Histamine H3 receptor (Homo sapiens, UniProt Q9Y5N1)
# Sequence (Q9Y5N1 whole entry): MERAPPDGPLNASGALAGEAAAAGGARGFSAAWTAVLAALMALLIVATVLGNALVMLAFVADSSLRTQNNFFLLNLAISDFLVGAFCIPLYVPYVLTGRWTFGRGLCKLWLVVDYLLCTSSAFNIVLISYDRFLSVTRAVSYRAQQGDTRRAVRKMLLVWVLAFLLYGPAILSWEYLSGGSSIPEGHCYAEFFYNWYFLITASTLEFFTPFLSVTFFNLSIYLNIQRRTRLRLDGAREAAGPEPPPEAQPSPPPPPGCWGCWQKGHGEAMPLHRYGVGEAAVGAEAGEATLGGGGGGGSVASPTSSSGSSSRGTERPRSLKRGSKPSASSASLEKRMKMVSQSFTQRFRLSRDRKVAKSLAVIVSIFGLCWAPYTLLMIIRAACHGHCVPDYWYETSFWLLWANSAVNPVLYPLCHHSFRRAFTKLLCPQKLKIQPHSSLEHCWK
# Test: Displacement of [125I]Iodoproxyfan from human histamine H3 receptor expressed in HEK293 cells after 60 mins by scintillation counting
# Format: cell-based
row,Ki,SMILES
1,2 nM,O=C(O)c1cn(C2CC2)c2cc(N3CCN(Cc4ccc(OCCCN5CCCCC5)cc4)CC3)c(F)cc2c1=O
2,50.1 nM,O=C1NC(=O)C(Cc2ccc(OCCCN3CCCCC3)cc2)S1 (centres undefined)
3,7.94 nM,O=C1NC(=O)/C(=C/c2ccc(OCCCN3CCCCC3)cc2)S1
4,5.01 nM,O=C1NC(=S)S/C1=C\c1ccc(OCCCN2CCCCC2)cc1
5,7.94 nM,c1cc(C2=NCCN2)ccc1OCCCN1CCCCC1
6,10 nM,O=C(O)C1CSC(c2ccc(OCCCN3CCCCC3)cc2)N1 (centres undefined)
7,3.98 nM,COC(=O)C1CSC(c2ccc(OCCCN3CCCCC3)cc2)N1 (centres undefined)
8,0.316 nM,CN(CCC=C1c2ccccc2CCc2ccccc21)Cc1ccc(OCCCN2CCCCC2)cc1
